Laboratory results reported in patent US20250243171A1, “QUINAZOLINE COMPOUNDS FOR TREATMENT OF DISEASE” (Arthrosi Therapeutics, Inc., priority 2021, published 2025).

Assays:
Experiment in all cases: EC50 assay: Ba/F3 stable cell proliferation (CCK-8, 72 h)
Assay type in all cases: cell-based
[1] = molecular target: T1, Ba/F3 stable cells (Homo sapiens, UniProt P00533, DUP771-773, cells depend on it); conditions: Ba/F3-EGFR H773-V774insNPH cells
T1 construct: EC50 Ba/F3-EGFR H773-V774insNPH; other: Ba/F3-EGFR H773-V774insNPH cells, 72 h, CCK-8
T1 sequence (P00533 with tags, fused parts or gaps DUP771-773): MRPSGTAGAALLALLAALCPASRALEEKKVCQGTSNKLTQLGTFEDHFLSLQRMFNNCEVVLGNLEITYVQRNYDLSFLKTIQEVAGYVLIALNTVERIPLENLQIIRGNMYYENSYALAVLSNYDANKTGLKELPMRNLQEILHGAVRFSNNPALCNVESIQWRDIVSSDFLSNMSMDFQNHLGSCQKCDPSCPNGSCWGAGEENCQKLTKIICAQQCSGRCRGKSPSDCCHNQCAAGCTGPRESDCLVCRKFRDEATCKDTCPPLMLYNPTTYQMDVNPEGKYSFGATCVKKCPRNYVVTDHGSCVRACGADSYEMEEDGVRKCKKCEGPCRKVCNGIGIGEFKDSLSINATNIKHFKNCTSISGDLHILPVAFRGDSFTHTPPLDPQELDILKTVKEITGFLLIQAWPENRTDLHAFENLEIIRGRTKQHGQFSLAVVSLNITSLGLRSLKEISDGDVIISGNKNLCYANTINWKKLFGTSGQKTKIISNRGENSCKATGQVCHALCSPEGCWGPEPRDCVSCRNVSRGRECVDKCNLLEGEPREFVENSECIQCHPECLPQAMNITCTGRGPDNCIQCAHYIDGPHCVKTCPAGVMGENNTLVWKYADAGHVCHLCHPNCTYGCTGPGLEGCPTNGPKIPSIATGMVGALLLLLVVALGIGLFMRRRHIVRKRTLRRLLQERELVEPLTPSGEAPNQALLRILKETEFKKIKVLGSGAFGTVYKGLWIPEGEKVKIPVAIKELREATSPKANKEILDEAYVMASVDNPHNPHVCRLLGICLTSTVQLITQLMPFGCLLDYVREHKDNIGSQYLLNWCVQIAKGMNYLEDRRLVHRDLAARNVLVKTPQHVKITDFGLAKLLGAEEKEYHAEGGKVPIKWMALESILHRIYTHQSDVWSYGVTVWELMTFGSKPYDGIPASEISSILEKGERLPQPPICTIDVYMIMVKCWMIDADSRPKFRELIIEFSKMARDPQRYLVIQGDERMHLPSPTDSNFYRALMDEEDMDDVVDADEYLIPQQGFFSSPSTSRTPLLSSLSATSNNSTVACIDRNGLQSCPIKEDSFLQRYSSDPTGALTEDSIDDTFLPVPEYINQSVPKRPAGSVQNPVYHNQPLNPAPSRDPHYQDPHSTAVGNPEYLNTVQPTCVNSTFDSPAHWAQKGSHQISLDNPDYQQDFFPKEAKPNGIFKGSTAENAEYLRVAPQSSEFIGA
In short: (§1)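 Ba/F3 stable cells were seeded at 4,000 cells/90 μL/well in 96-well plates and held 2 h at 37° C. in 5% CO2, then given 10 μL of serially titrated compound (0.1% DMSO final). After 72 h at 37° C., CCK-8 reagent was added for 4 hours and absorbance read at 450 nm to derive EC50.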

[2] = molecular target: T2, Ba/F3 stable cells (Homo sapiens, UniProt P00533, DUP768-770, cells depend on it); conditions: Ba/F3-EGFR D770-N771insSVD cells
T2 construct: EC50 Ba/F3-EGFR D770-N771insSVD; other: Ba/F3-EGFR D770-N771insSVD cells, 72 h, CCK-8
T2 sequence (P00533 with tags, fused parts or gaps DUP768-770): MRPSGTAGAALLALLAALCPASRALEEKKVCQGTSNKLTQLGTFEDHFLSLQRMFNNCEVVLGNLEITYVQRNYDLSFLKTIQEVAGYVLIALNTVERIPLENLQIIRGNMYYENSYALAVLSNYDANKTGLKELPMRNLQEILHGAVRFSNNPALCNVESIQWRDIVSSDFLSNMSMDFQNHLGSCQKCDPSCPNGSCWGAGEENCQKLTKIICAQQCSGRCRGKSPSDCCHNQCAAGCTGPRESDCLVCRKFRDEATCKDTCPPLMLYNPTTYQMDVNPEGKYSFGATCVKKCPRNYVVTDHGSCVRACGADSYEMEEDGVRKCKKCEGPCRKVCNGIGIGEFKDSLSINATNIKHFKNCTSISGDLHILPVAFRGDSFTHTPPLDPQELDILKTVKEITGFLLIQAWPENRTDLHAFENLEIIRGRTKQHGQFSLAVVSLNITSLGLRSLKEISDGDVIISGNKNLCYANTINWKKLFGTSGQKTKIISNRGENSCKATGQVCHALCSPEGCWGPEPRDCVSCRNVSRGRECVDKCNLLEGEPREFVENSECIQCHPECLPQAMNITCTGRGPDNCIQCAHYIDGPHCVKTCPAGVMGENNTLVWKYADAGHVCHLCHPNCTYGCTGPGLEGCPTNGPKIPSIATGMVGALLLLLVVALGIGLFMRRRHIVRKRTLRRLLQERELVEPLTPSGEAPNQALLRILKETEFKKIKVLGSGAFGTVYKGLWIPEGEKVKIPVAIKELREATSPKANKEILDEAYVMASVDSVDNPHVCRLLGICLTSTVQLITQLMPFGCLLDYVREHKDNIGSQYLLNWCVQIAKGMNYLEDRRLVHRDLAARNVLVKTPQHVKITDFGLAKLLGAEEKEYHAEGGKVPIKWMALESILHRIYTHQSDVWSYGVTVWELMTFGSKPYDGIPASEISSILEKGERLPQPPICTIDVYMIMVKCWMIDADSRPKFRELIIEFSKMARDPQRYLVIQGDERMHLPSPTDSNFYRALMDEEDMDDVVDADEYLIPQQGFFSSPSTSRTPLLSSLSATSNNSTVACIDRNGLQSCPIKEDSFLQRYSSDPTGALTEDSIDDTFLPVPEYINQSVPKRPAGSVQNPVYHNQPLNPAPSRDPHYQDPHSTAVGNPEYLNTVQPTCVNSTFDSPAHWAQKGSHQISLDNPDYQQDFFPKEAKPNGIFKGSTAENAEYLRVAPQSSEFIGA
In short: as §1

[3] = molecular target: T3, Ba/F3 stable cells (Homo sapiens, UniProt P00533, DUP767-769, cells depend on it); conditions: Ba/F3-EGFR V769-D770insASV cells
T3 construct: EC50 Ba/F3-EGFR V769-D770insASV; other: Ba/F3-EGFR V769-D770insASV cells, 72 h, CCK-8
In short: as §1

[4] = molecular target: T4, Ba/F3 stable cells (Homo sapiens, UniProt P00533, INS763FQEA, cells depend on it); conditions: Ba/F3-EGFR A763-Y764insFQEA cells
T4 construct: EC50 Ba/F3-EGFR A763-Y764insFQEA; other: Ba/F3-EGFR A763-Y764insFQEA cells, 72 h, CCK-8
T4 sequence (P00533 with tags, fused parts or gaps INS763FQEA): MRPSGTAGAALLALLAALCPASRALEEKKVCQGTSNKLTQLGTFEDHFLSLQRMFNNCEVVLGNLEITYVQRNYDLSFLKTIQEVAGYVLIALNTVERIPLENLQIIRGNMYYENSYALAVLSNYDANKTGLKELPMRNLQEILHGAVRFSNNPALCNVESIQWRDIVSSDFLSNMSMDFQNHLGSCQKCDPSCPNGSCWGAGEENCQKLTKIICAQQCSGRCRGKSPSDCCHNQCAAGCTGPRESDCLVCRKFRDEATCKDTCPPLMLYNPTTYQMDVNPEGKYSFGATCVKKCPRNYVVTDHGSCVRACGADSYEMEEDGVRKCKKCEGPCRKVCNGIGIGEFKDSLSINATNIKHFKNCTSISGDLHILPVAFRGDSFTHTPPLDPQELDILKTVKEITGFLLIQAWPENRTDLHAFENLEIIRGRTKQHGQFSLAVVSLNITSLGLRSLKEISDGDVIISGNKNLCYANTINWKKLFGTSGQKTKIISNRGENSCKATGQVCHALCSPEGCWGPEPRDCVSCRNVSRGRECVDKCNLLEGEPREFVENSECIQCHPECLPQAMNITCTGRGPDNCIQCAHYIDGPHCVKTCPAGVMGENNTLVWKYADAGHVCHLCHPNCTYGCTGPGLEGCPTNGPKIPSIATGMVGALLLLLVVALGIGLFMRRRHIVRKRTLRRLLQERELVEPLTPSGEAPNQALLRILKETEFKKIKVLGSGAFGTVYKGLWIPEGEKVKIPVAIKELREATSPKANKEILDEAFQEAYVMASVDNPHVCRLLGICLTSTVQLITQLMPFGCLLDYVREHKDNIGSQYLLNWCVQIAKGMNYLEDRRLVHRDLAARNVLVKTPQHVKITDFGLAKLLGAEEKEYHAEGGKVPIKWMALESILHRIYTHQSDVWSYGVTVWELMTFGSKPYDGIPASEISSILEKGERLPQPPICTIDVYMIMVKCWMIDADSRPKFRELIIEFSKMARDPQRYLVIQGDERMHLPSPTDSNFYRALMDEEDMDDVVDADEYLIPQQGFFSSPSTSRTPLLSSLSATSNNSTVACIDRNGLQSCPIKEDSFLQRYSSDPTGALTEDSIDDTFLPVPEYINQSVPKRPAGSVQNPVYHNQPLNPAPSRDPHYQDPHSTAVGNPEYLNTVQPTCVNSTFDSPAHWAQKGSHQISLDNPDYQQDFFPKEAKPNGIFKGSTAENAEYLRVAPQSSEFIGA
In short: as §1

[5] = molecular target: T5, Ba/F3 stable cells (Homo sapiens, UniProt P00533, T790M/L858R, cells depend on it); conditions: Ba/F3-EGFR L858R-T790M cells
T5 construct: EC50 Ba/F3-EGFR L858R-T790M; other: Ba/F3-EGFR L858R-T790M cells, 72 h, CCK-8
In short: as §1

[6] = molecular target: T6, Ba/F3 stable cells (Homo sapiens, UniProt P04626, DUP772-775, cells depend on it); conditions: Ba/F3-HER2 A775-G776insYVMA cells
T6 construct: EC50 Ba/F3-HER2 A775-G776insYVMA; other: Ba/F3-HER2 A775-G776insYVMA cells, 72 h, CCK-8
T6 sequence (P04626 with tags, fused parts or gaps DUP772-775): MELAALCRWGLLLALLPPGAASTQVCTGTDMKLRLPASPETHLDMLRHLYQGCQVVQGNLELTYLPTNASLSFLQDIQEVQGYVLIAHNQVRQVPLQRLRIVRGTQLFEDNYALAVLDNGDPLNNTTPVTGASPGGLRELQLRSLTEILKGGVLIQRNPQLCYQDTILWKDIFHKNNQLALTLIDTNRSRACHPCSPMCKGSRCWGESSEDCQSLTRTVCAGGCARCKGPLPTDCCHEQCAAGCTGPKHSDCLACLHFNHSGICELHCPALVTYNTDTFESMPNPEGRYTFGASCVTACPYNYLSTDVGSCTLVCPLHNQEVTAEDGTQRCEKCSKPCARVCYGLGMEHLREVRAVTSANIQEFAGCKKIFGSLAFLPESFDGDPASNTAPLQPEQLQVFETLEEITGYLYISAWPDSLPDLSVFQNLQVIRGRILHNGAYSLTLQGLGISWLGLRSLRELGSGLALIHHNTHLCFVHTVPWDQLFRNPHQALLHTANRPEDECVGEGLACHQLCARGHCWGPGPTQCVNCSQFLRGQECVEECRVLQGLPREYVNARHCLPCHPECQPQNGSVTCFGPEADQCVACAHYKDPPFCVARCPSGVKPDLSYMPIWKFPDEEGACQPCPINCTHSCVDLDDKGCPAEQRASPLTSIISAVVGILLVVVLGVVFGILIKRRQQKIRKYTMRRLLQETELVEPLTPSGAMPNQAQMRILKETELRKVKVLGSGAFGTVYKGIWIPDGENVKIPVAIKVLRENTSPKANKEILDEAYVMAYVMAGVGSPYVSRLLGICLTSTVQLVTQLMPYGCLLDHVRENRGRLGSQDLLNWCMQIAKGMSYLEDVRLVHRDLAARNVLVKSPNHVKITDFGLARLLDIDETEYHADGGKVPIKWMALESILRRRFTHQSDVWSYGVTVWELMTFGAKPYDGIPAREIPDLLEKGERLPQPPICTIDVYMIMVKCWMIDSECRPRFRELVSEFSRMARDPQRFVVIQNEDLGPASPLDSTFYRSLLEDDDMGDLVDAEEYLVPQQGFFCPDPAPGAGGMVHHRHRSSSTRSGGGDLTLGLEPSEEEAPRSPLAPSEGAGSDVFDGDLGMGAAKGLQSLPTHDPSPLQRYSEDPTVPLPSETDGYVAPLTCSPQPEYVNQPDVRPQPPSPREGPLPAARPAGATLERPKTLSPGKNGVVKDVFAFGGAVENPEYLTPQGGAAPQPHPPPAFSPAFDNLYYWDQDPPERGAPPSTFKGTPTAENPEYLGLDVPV
In short: as §1

EC50 [1] [nM]	EC50 [2] [nM]	EC50 [3] [nM]	EC50 [4] [nM]	EC50 [5] [nM]	EC50 [6] [nM]	SMILES
200 to 1000	> 1000	≤ 200	≤ 200	≤ 200	200 to 1000	C=CC(=O)N1CCC(Oc2cc3c(Nc4ccnc5ccccc45)ncnc3cc2OC)CC1 [Compound 162, 1-(4-((7-methoxy-4-(quinolin-4-ylamino)quinazolin-6-yl)oxy)piperidin-1-yl)prop-2-en-1-one]
200 to 1000	200 to 1000	≤ 200	≤ 200	≤ 200	200 to 1000	C=CC(=O)N1CCC(Oc2cc3c(Nc4ccc(Cl)c5ccccc45)ncnc3cc2OC)CC1 [Compound 164, 1-(4-((4-((4-chloronaphthalen-1-yl)amino)-7-methoxyquinazolin-6-yl)oxy)piperidin-1-yl)prop-2-en-1-one]
200 to 1000	> 1000	200 to 1000	≤ 200	200 to 1000	> 1000	C=CC(=O)N1CCC(Oc2cc3c(Nc4cccc5[nH]ccc45)ncnc3cc2OC)CC1 [Compound 165, 1-(4-((4-((1H-indol-4-yl)amino)-7-methoxyquinazolin-6-yl)oxy)piperidin-1-yl)prop-2-en-1-one]
≤ 200	> 1000	≤ 200	≤ 200	200 to 1000	≤ 200	C=CC(=O)N1CCC(Oc2cc3c(Nc4cccc5cc[nH]c45)ncnc3cc2OC)CC1 [Compound 166, 1-(4-((4-((1H-indol-7-yl)amino)-7-methoxyquinazolin-6-yl)oxy)piperidin-1-yl)prop-2-en-1-one]
200 to 1000	> 1000	200 to 1000	≤ 200	≤ 200	200 to 1000	C=CC(=O)N1CCC(Oc2cc3c(Nc4ccc(C)c5ccccc45)ncnc3cc2OC)CC1 [Compound 167, 1-(4-((7-methoxy-4-((4-methylnaphthalen-1-yl)amino)quinazolin-6-yl)oxy)piperidin-1-yl)prop-2-en-1-one]
≤ 200	200 to 1000	≤ 200	≤ 200	> 1000	≤ 200	C=CC(=O)N1CCC(Oc2cc3c(Nc4ccc5c(c4)CCN5)ncnc3cc2OC)CC1 [Compound 168, 1-(4-((4-(indolin-5-ylamino)-7-methoxyquinazolin-6-yl)oxy)piperidin-1-yl)prop-2-en-1-one]
≤ 200	200 to 1000	≤ 200	≤ 200	200 to 1000	≤ 200	C=CC(=O)N1CCC(Oc2cc3c(Nc4ccc5[nH]ccc5c4)ncnc3cc2OC)CC1 [Compound 169, 1-(4-((4-((1H-indol-5-yl)amino)-7-methoxyquinazolin-6-yl)oxy)piperidin-1-yl)prop-2-en-1-one]
200 to 1000	> 1000	200 to 1000	≤ 200	≤ 200	200 to 1000	C=CC(=O)N1CCC(Oc2cc3c(Nc4ccc5c(ccn5C)c4)ncnc3cc2OC)CC1 [Compound 170, 1-(4-((7-methoxy-4-((1-methyl-1H-indol-5-yl)amino)quinazolin-6-yl)oxy)piperidin-1-yl)prop-2-en-1-one]
200 to 1000	200 to 1000	≤ 200	≤ 200	> 1000	≤ 200	C=CC(=O)N1CCC(Oc2cc3c(NCc4ccc(F)cc4)ncnc3cc2OC)CC1 [Compound 172, 1-(4-((4-((4-fluorobenzyl)amino)-7-methoxyquinazolin-6-yl)oxy)piperidin-1-yl)prop-2-en-1-one]
200 to 1000	> 1000	≤ 200	≤ 200	> 1000	> 1000	C=CC(=O)N1CCC(Oc2cc3c(N[C@H](C)c4ccc(F)cc4)ncnc3cc2OC)CC1 [Compound 173, (R)-1-(4-((4-((1-(4-fluorophenyl)ethyl)amino)-7-methoxyquinazolin-6-yl)oxy)piperidin-1-yl)prop-2-en-1-one]
